Data: patent US12077759B2, “Compositions and methods for treating pathologic calcification” (Washington University, priority 2021, dated 2024)

Tested on: Wnt/β-catenin pathway
Assay: Treatment of ACLp cells with Wnt agonist SKL2001 (rescue of osteogenesis)
Assay type: cell-based, human
Conditions: SKL2001 10 μM
Procedure: In short, 5×10^5 ACLp cells were first treated with KIF26B shRNA or scrambled shRNA for 48 hours and selected by Puromycin for another 48 hours. Afterward, 2×10^5 ACLp cells were seeded in a 12-well plate. Next osteogenesis was induced as above but in addition, SKL2001 (10 μM) dissolved in dimethyl sulfoxide (DMSO, Sigma-Aldrich) or DMSO only (vehicle) was added to cells. The medium was changed 3 times a week. After 7 days of osteogenic induction, the protein levels of active and total β-catenin were detected by Western blot as described above. After culture for 28 days, the Alizarin red staining was performed as above. After 28 days of osteogenic induction, RNA was isolated and expression of AXIN2 and WNT16 was measured using standard methods detailed above.

With `O=C(NCCCn1ccnc1)c1cc(-c2ccco2)on1` [SKL2001] the “decrease of active β-catenin protein levels after KIF26B knockdown (Western blot)” value (ACLp cells transduced with KIF26B shRNA, 7 days of osteogenic induction) was “significantly attenuated”, the “decrease in osteogenesis due to KIF26B loss-of-function (Alizarin red staining)” value (ACLp cells transduced with KIF26B shRNA, 28 days) was “reverted” and the “AXIN2 mRNA expression” value (ACLp cells, 28 days of osteogenic induction, vehicle (DMSO) 1.00±0.02, p<0.001) was 2.20±0.08. The “WNT16 mRNA expression” value (ACLp cells, 28 days of osteogenic induction, vehicle (DMSO) 1.00±0.14, p<0.001) was 3.06±0.13.
